PubChem BioAssay (NCI)
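Compound exposure: 48 hours, 5 concentrations, 96-well plates. GI50 is the concentration that inhibits growth by half. TGI marks complete inhibition of growth.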

Key:
Test in all cases: NCI tumour cell line growth inhibition, 48 h
MCF7 breast = test system: MCF7 breast
UACC-257 melanoma = test system: UACC-257 melanoma
RPMI-8226 leukemia = test system: RPMI-8226 leukemia
HOP-92 NSCLC = test system: HOP-92 NSCLC
TK-10 renal = test system: TK-10 renal
M14 melanoma = test system: M14 melanoma
RXF 393 renal = test system: RXF 393 renal
SK-MEL-5 melanoma = test system: SK-MEL-5 melanoma
SNB-19 CNS = test system: SNB-19 CNS
HCT-15 colon = test system: HCT-15 colon
OVCAR-3 ovarian = test system: OVCAR-3 ovarian
OVCAR-4 ovarian = test system: OVCAR-4 ovarian
NCI-H460 lung = test system: NCI-H460 lung
K-562 leukemia = test system: K-562 leukemia
UO-31 renal = test system: UO-31 renal
PC-3 prostate = test system: PC-3 prostate
OVCAR-5 ovarian = test system: OVCAR-5 ovarian
SR leukemia = test system: SR leukemia
SW-620 colon = test system: SW-620 colon
U251 CNS = test system: U251 CNS
SK-OV-3 ovarian = test system: SK-OV-3 ovarian
NCI-H226 lung = test system: NCI-H226 lung
HCC-2998 colon = test system: HCC-2998 colon
SF-539 CNS = test system: SF-539 CNS
UACC-62 melanoma = test system: UACC-62 melanoma
SK-MEL-2 melanoma = test system: SK-MEL-2 melanoma
BT-549 breast = test system: BT-549 breast
HL-60(TB) leukemia = test system: HL-60(TB) leukemia
NCI-H23 lung = test system: NCI-H23 lung
HT29 colon = test system: HT29 colon
IGROV1 ovarian = test system: IGROV1 ovarian
A549 NSCLC = test system: A549 NSCLC
SK-MEL-28 melanoma = test system: SK-MEL-28 melanoma
MOLT-4 leukemia = test system: MOLT-4 leukemia
EKVX NSCLC = test system: EKVX NSCLC
MDA-MB-435 = test system: MDA-MB-435
NCI/ADR-RES ovarian = test system: NCI/ADR-RES ovarian
KM12 colon = test system: KM12 colon
SF-295 CNS = test system: SF-295 CNS
DU-145 prostate = test system: DU-145 prostate
HOP-62 NSCLC = test system: HOP-62 NSCLC
A498 renal = test system: A498 renal
SNB-75 CNS = test system: SNB-75 CNS
HS 578T breast = test system: HS 578T breast
CAKI-1 renal = test system: CAKI-1 renal
MALME-3M melanoma = test system: MALME-3M melanoma

CSc1n[nH]c2c1c(C)nn2-c1ccccc1
TGI (MCF7 breast): > 100 µM | TGI (UACC-257 melanoma): > 100 µM | TGI (RPMI-8226 leukemia): > 100 µM | TGI (HOP-92 NSCLC): > 100 µM | TGI (TK-10 renal): > 100 µM | TGI (M14 melanoma): > 100 µM | TGI (RXF 393 renal): > 100 µM | TGI (SK-MEL-5 melanoma): > 100 µM | TGI (SNB-19 CNS): > 100 µM | TGI (HCT-15 colon): > 100 µM | TGI (OVCAR-3 ovarian): > 100 µM | TGI (OVCAR-4 ovarian): > 100 µM | TGI (NCI-H460 lung): > 100 µM | TGI (K-562 leukemia): > 100 µM | TGI (UO-31 renal): > 100 µM | TGI (PC-3 prostate): > 100 µM | TGI (OVCAR-5 ovarian): > 100 µM | TGI (SR leukemia): > 100 µM | TGI (SW-620 colon): > 100 µM | TGI (U251 CNS): > 100 µM | TGI (SK-OV-3 ovarian): > 100 µM | TGI (NCI-H226 lung): > 100 µM | TGI (HCC-2998 colon): > 100 µM | TGI (SF-539 CNS): > 100 µM | TGI (UACC-62 melanoma): > 100 µM | TGI (SK-MEL-2 melanoma): > 100 µM | TGI (BT-549 breast): > 100 µM | TGI (HL-60(TB) leukemia): > 100 µM | TGI (NCI-H23 lung): > 100 µM | TGI (HT29 colon): > 100 µM | TGI (IGROV1 ovarian): > 100 µM | TGI (A549 NSCLC): > 100 µM | TGI (SK-MEL-28 melanoma): > 100 µM | TGI (MOLT-4 leukemia): > 100 µM | TGI (EKVX NSCLC): > 100 µM | TGI (MDA-MB-435): > 100 µM

C#CCn1c(=O)c(I)cn(/C(=C\C(=O)OCC)C(=O)OCC)c1=O
TGI (NCI/ADR-RES ovarian): 65.1 µM | TGI (SNB-19 CNS): 64 µM | TGI (KM12 colon): 31.7 µM | TGI (NCI-H460 lung): 39.9 µM | TGI (SF-295 CNS): 36.8 µM | TGI (OVCAR-5 ovarian): 40.2 µM | TGI (U251 CNS): 29.1 µM | TGI (SK-OV-3 ovarian): 31.8 µM | TGI (NCI-H226 lung): 38.2 µM | TGI (SF-539 CNS): 33.4 µM | TGI (UACC-62 melanoma): 30.6 µM | TGI (SK-MEL-2 melanoma): 37.2 µM | TGI (DU-145 prostate): 31.3 µM | TGI (HOP-62 NSCLC): 33.6 µM | TGI (A498 renal): 31.9 µM | TGI (SNB-75 CNS): 30.9 µM | TGI (A549 NSCLC): > 100 µM | TGI (HS 578T breast): > 100 µM | TGI (MDA-MB-435): 30.9 µM

C=C(C)[C@@H]1CC[C@]2(C)[C@H](CC=C3[C@@H]4CC(C)(C)CC[C@]4(CO)CC[C@]32C)[C@@]1(C)CCCN
GI50 (M14 melanoma): 1.65 µM | TGI (M14 melanoma): 3.1 µM | GI50 (SK-MEL-5 melanoma): 1.68 µM | TGI (SK-MEL-5 melanoma): 3.05 µM | GI50 (K-562 leukemia): 2.17 µM | TGI (K-562 leukemia): 8.26 µM | GI50 (SK-OV-3 ovarian): 1.88 µM | TGI (SK-OV-3 ovarian): 3.33 µM | GI50 (NCI-H226 lung): 5.31 µM | TGI (NCI-H226 lung): 27.7 µM | GI50 (SF-539 CNS): 1.65 µM | TGI (SF-539 CNS): 3.02 µM | GI50 (UACC-62 melanoma): 1.68 µM | TGI (UACC-62 melanoma): 3.05 µM | GI50 (SK-MEL-2 melanoma): 1.98 µM | TGI (SK-MEL-2 melanoma): 3.58 µM | GI50 (A498 renal): 1.49 µM | TGI (A498 renal): 2.81 µM | GI50 (CAKI-1 renal): 1.73 µM | TGI (CAKI-1 renal): 3.1 µM | GI50 (MDA-MB-435): 1.62 µM | TGI (MDA-MB-435): 2.98 µM | GI50 (MALME-3M melanoma): 1.55 µM | TGI (MALME-3M melanoma): 2.96 µM
